Measured values from patent US20110105623A1 (Biogenic Innovations, LLC, priority 2009, published 2011).

Experiments:
Assay type in all cases: cell-based
Escherichia coli = test: USP AET, MSM in TSB; set-up: key: Colonies too numerous to count (TNTC); settings: 48 hrs
Text: (§1) Compounds or formulated products having antimicrobial activity may be evaluated with the United States Pharmacopeia (USP) Antimicrobial Effectiveness Test (AET). The AET involves the addition of specified microorganisms (Candida albicans, Aspergillus niger, Escherichia coli, Pseudomonas aeruginosa and Staphylococcus aureus) directly to a test product at relatively high concentrations to simulate contamination. The product is held for one month, with weekly analysis of microorganism levels. Depending on the route of administration of a product, satisfaction of the AET generally requires a 1 to 3 log reduction in bacteria from initial levels, which should occur in one to two weeks, with no further increase in bacteria after two weeks. For yeast and mold, no increase from the initial inoculums level is permitted.
(§2) Inoculations were made using Candida albicans, Aspergillus niger, Escherichia coli, Pseudomonas aeruginosa and Staphylococcus aureus. Tryptic soy broth (TSB) was used as the culturing media. […] The inoculated media was held for one month, during which time the added microorganisms were enumerated weekly to determine if they were growing, dying off, or remaining near the initial inoculation level. Data points were measured in triplicate at 48 hours, 3, 5, 14, 20, 28, and 30 days. The acceptance criteria for antimicrobial effectiveness are described in detail in the USP, herein incorporated by reference.

Pseudomonas aeruginosa = test: USP AET, MSM in TSB; set-up: key: Colonies too numerous to count (TNTC); settings: 48 hrs
Text: as §1, §2

Candida albicans = test: USP AET, MSM in TSB; set-up: key to AET microorganism count: Colonies too numerous to count (TNTC); settings: for Log Reduction from Initial Microorganism Inoculum: 1:10 dilution of MSM, 14, 28 Days; for AET microorganism count: 48 hrs
Text: as §1, §2

Staphylococcus aureus = test: USP AET, MSM in TSB; set-up: key to AET microorganism count: Colonies too numerous to count (TNTC); settings: for Log Reduction from Initial Microorganism Inoculum: 1:10 dilution of MSM, 14, 28 Days; for AET microorganism count: 48 hrs
Text: as §1, §2

[1] = system: Escherichia coli (ATCC strain 8739); test: Growth profile in sterile/non-sterile MSM media, streaked on MacConkey agar; settings: 5-16% MSM
Protocol: Tubes were incubated at 25° C.

[2] = system: Acidophilus plus Bifidus milk microorganisms; test: Recovery from Acidophilus plus bifidus milk fortified with MSM; settings: for Lag Recovery of Lactobacillus acidophilus in Milk fortified with MSM Day 14: A/B 2.5 MSM; for Lag Recovery of Lactobacillus acidophilus in Milk fortified with MSM Day 7 / Lag Recovery of Lactobacillus acidophilus in Milk fortified with MSM Day 21 / Lag Recovery of Lactobacillus acidophilus in Milk fortified with MSM Day 28: A/B […] MSM
[3] = system: MRC-5 (Human lung fibroblasts) cells; test: Toxicity control for Pre-Treatment test
Text: (§3) B. Toxicity Control for Pre-Treatment Test.

[4] = system: Vero (African green monkey kidney) cells; test: Toxicity control for Pre-Treatment test
Text: as §3

Methylsulfonylmethane [MSM]
AET microorganism count (Escherichia coli; 1:100 dilution of MSM): TNTC
AET microorganism count (Escherichia coli; 1:1000 dilution of MSM): TNTC
AET microorganism count (Pseudomonas aeruginosa; 1:100 dilution of MSM): TNTC
AET microorganism count (Pseudomonas aeruginosa; 1:1000 dilution of MSM): TNTC
Log Reduction from Initial Microorganism Inoculum (Candida albicans; 14 days after inoculation): 4.2 log
Log Reduction from Initial Microorganism Inoculum (Candida albicans; 28 days after inoculation): 4.4 log
AET microorganism count (Candida albicans; 1:100 dilution of MSM): TNTC
AET microorganism count (Candida albicans; 1:1000 dilution of MSM): TNTC
Log Reduction from Initial Microorganism Inoculum (Staphylococcus aureus; 14 days after inoculation): 4.5 log
Log Reduction from Initial Microorganism Inoculum (Staphylococcus aureus; 28 days after inoculation): 4.7 log
AET microorganism count (Staphylococcus aureus; 1:100 dilution of MSM): TNTC
AET microorganism count (Staphylococcus aureus; 1:1000 dilution of MSM): TNTC
Growth profile of E. coli ([1]; 24 hours, NS (sterile saline + non-sterile MSM), 8% MSM): Heavy
Growth profile of E. coli ([1]; 24 hours, NS (sterile saline + non-sterile MSM), 12% MSM): Moderate
Growth profile of E. coli ([1]; 24 hours, NSA (saline + MSM, then sterilized), 8% MSM): Heavy
Growth profile of E. coli ([1]; 24 hours, NSA (saline + MSM, then sterilized), 12% MSM): Moderate
Growth profile of E. coli ([1]; 24 hours, TSB (sterile TSB + non-sterile MSM), 8% MSM): Heavy
Growth profile of E. coli ([1]; 24 hours, TSB (sterile TSB + non-sterile MSM), 10% MSM): Moderate
Growth profile of E. coli ([1]; 24 hours, TSB (sterile TSB + non-sterile MSM), 11% MSM): Few
Growth profile of E. coli ([1]; 24 hours, TSBA (TSB + MSM, then sterilized), 8% MSM): Heavy
Growth profile of E. coli ([1]; 24 hours, TSBA (TSB + MSM, then sterilized), 10% MSM): Moderate
Growth profile of E. coli ([1]; 24 hours, TSBA (TSB + MSM, then sterilized), 11% MSM): Few
Growth profile of E. coli ([1]; 48 hours, NS, 8% MSM): Heavy
Growth profile of E. coli ([1]; 48 hours, NS, 12% MSM): Moderate
Growth profile of E. coli ([1]; 48 hours, NSA, 8% MSM): Heavy
Growth profile of E. coli ([1]; 48 hours, NSA, 12% MSM): Moderate
Growth profile of E. coli ([1]; 48 hours, TSB, 8% MSM): Heavy
Growth profile of E. coli ([1]; 48 hours, TSB, 11% MSM): Moderate
Growth profile of E. coli ([1]; 48 hours, TSB, 12% MSM): Few
Growth profile of E. coli ([1]; 48 hours, TSBA, 8% MSM): Heavy
Growth profile of E. coli ([1]; 48 hours, TSBA, 11% MSM): Moderate
Growth profile of E. coli ([1]; 48 hours, TSBA, 12% MSM): Few
Growth profile of E. coli ([1]; 72 hours, NS, 8% MSM): Heavy
Growth profile of E. coli ([1]; 72 hours, NS, 12% MSM): Moderate
Growth profile of E. coli ([1]; 72 hours, NSA, 8% MSM): Heavy
Growth profile of E. coli ([1]; 72 hours, NSA, 12% MSM): Moderate
Growth profile of E. coli ([1]; 72 hours, TSB, 8% MSM): Heavy
Growth profile of E. coli ([1]; 72 hours, TSB, 11% MSM): Moderate
Growth profile of E. coli ([1]; 72 hours, TSB, 12% MSM): Few
Growth profile of E. coli ([1]; 72 hours, TSBA, 8% MSM): Heavy
Growth profile of E. coli ([1]; 72 hours, TSBA, 11% MSM): Moderate
Growth profile of E. coli ([1]; 72 hours, TSBA, 12% MSM): Few
Lag Recovery of Lactobacillus acidophilus in Milk fortified with MSM Day 14 ([2]; Day 14-24): 13.35 logs
Lag Recovery of Lactobacillus acidophilus in Milk fortified with MSM Day 14 ([2]; Day 14-48): 13.47 logs
Lag Recovery of Lactobacillus acidophilus in Milk fortified with MSM Day 14 ([2]; Day 14-72): 13.43 logs
Lag Recovery of Lactobacillus acidophilus in Milk fortified with MSM Day 7 ([2]; Day 7-24): 13.44 logs
Lag Recovery of Lactobacillus acidophilus in Milk fortified with MSM Day 7 ([2]; Day 7-72): 12.77 logs
Lag Recovery of Lactobacillus acidophilus in Milk fortified with MSM Day 21 ([2]; Day 21-24): 13.08 logs
Lag Recovery of Lactobacillus acidophilus in Milk fortified with MSM Day 21 ([2]; Day 21-48): 12.08 logs
Lag Recovery of Lactobacillus acidophilus in Milk fortified with MSM Day 21 ([2]; Day 21-72): 12.33 logs
Lag Recovery of Lactobacillus acidophilus in Milk fortified with MSM Day 28 ([2]; Day 28-24): 12.67 logs
Lag Recovery of Lactobacillus acidophilus in Milk fortified with MSM Day 28 ([2]; Day 28-48): 13.19 logs
Lag Recovery of Lactobacillus acidophilus in Milk fortified with MSM Day 28 ([2]; Day 28-72): 12.00 logs
Recovery of Lactobacillus acidophilus in Milk fortified with MSM Day 7, initial start data ([2]; Ac/Bf […] MSM, Day 7): 8.42 logs
Recovery of Lactobacillus acidophilus in Milk fortified with MSM Day 14, initial start data ([2]; Ac/Bf […] MSM, Day 14-0): 3.70 logs
Recovery of Lactobacillus acidophilus in Milk fortified with MSM Day 21, initial start data ([2]; Ac/Bf […] MSM, Day 21): 3.37 logs
Recovery of Lactobacillus acidophilus in Milk fortified with MSM Day 28, initial start data ([2]; Ac/Bf […] MSM, Day 28): 1.94 logs
Day 7 log recovery growth rate increase from start time of zero ([2]; Ac/Bf […] MSM, Hour 0): 0.00 logs
Day 14 log recovery growth rate increase from start time of zero ([2]; Ac/Bf […] MSM, Hour 0): 0.00 logs
Day 21 log recovery growth rate increase from start time of zero ([2]; Ac/Bf […] MSM, Hour 0): 0.00 logs
Day 7 log recovery growth rate increase from start time of zero ([2]; Ac/Bf […] MSM, Hour 24): 5.02 logs
Day 14 log recovery growth rate increase from start time of zero ([2]; Ac/Bf […] MSM, Hour 24): 9.65 logs
Day 21 log recovery growth rate increase from start time of zero ([2]; Ac/Bf […] MSM, Hour 24): 9.71 logs
Day 7 log recovery growth rate increase from start time of zero ([2]; Ac/Bf […] MSM, Hour 48): −0.94 logs
Day 14 log recovery growth rate increase from start time of zero ([2]; Ac/Bf […] MSM, Hour 48): 0.12 logs
Day 21 log recovery growth rate increase from start time of zero ([2]; Ac/Bf […] MSM, Hour 48): −1.00 logs
Day 7 log recovery growth rate increase from start time of zero ([2]; Ac/Bf […] MSM, Hour 72): 0.27 logs
Day 14 log recovery growth rate increase from start time of zero ([2]; Ac/Bf […] MSM, Hour 72): −0.04 logs
Day 21 log recovery growth rate increase from start time of zero ([2]; Ac/Bf […] MSM, Hour 72): 0.25 logs
Day 28 log recovery growth rate increase from start time of zero ([2]; Ac/Bf […] MSM, Time 0): 0.00 logs
Day 28 log recovery growth rate increase from start time of zero ([2]; Ac/Bf […] MSM, Time 24): 10.73 logs
Day 28 log recovery growth rate increase from start time of zero ([2]; Ac/Bf […] MSM, Time 48): 0.52 logs
Day 28 log recovery growth rate increase from start time of zero ([2]; Ac/Bf […] MSM, Time 72): −1.19 logs
Test Product Cytotoxicity (CPE) ([3]; MRC-5, 0.5%): 00
Test Product Cytotoxicity (CPE) ([3]; MRC-5, 1%): 00
Test Product Cytotoxicity (CPE) ([3]; MRC-5, 2%): 00
Test Product Cytotoxicity (CPE) ([3]; MRC-5, 3%): 00
Test Product Cytotoxicity (CPE) ([3]; MRC-5, 4%): 00
Test Product Cytotoxicity (CPE) ([3]; MRC-5, 5%): 00
Test Product Cytotoxicity (CPE) ([3]; MRC-5, 6%): 00
Test Product Cytotoxicity (CPE) ([4]; 0.5%): 00
Test Product Cytotoxicity (CPE) ([4]; 1%): 00
Test Product Cytotoxicity (CPE) ([4]; 2%): 00
Test Product Cytotoxicity (CPE) ([4]; 3%): 00
Test Product Cytotoxicity (CPE) ([4]; 4%): 00
Test Product Cytotoxicity (CPE) ([4]; 5%): 00
Test Product Cytotoxicity (CPE) ([4]; 6%): 00
Test Product Cytotoxicity (CPE) ([4]; 7%): 00
